Measurements taken from patent US10617622B2, “Hair restoration and/or hair growth promoting composition containing soyasaponin” (AMOREPACIFIC CORPORATION, priority 2015, dated 2020).

Columns and labels:
[1] = test system: dermal papilla cells (DPC); assay: Expression of hair growth factor VEGF in dermal papilla cells (VEGF ELISA); format: cell-based, human; conditions: 20 ppm, 24 hours
Method: In order to evaluate the degree of expression of vascular endothelial growth factor (VEGF) which is a growth factor necessary for transition of hair into the anagen phase as a growth factor necessary for angiogenesis by soyasaponin Aa, an in vitro system was applied to treat the soyasaponin Aa, and the activity thereof was evaluated. For the experiment, 4×10^5 dermal papilla cells (DPC) (P.11) of a person was seeded in a 12-well plate and cultured in DMEM (Dulbecco's modified Eagle's medium; GibcoBRL, Gaithersburg, Md., USA) containing 10% FBS (fetal bovine serum) overnight. After the culture, the cells were treated with soyasaponin Aa at 20 ppm. DMSO was used as a negative control. After 24 hours, the mixing solution with treated soyasaponin Aa was collected, and the degree of VEGF expression by the soyasaponin Aa was confirmed using VEGF ELISA (Vascular endothelial growth factor Enzyme-Linked Immunosorbent Assay; R&D biosystems).

[2] = test system: human dermal papilla cell line; assay: Proliferation effect on hair follicle dermal papilla cells (WST-1 kit); format: cell-based; conditions: for hDPc proliferation (%): 24 hours after treatment, control = 100
Method: First, in the present invention, a human dermal papilla cell line was used (obtained from Prof. Kwan Oh Sang of dermatology in Seoul National University Hospital). The cell line was cultured for 24 hours in an incubator maintained at 5% CO2, 37° C. using DMEM (Dulbecco's modified Eagle's medium; Gibco BRL, Gaithersburg, Md., USA) containing 10% FBS, and then independently treated with soyasaponin Aa at 1 ppm, 10 ppm, and 20 ppm. DMSO was used as a negative control. Cell proliferation (%) was measured using a WST-1 kit (Roche) 24 hours after the treatment with the test materials.

[3] = test system: human hair follicle organ; assay: Hair growth promoting effect using human hair follicle organ culture; format: cell-based; conditions: for Average growth length (mm): 8 days after the treatment, hair follicles of a person
Method: The hair follicle organ was isolated from the scalp tissue of the occipital region of a person one at a time, and cultured in William's E medium (containing L-glutamine (2 mM), insulin (10 μg/ml), hydrocortisone (40 ng/ml), antibiotics (1%) antimycotic (1%)).
The hair follicles grown on the third day after culturing were selected and cut into 3 mm. As for the selected hair follicle tissues, those without drug treatment were used as a control group, and the hair follicle tissues were each treated with soyasaponin Aa at 1 ppm, 5 ppm, and 10 ppm. Then, the hair length was measured 8 days after the treatment.

## CC(=O)O[C@@H]1[C@@H](OC(C)=O)[C@H](O[C@@H]2[C@@H](O)[C@H](O[C@@H]3[C@H](O)C(C)(C)C[C@H]4C5=CC[C@@H]6[C@@]7(C)CC[C@H](O[C@@H]8O[C@H](C(=O)O)[C@@H](O)[C@H](O)[C@H]8O[C@@H]8O[C@H](CO)[C@H](O)[C@H](O)[C@H]8O[C@@H]8O[C@H](CO)[C@@H](O)[C@H](O)[C@H]8O)[C@](C)(CO)[C@@H]7CC[C@@]6(C)[C@]5(C)CC[C@@]34C)OC[C@@H]2O)OC[C@H]1OC(C)=O [Soyasaponin Aa, soyasaponin Aa]
[1]; dermal papilla cells
  increase of VEGF expression compared to the control group: ≥ 4 times
[1]; dermal papilla cells of a person, DMSO negative control
  VEGF (ng/ml) in culture medium: 16.7 ng/mL
[2]; 1 ppm
  hDPc proliferation (%): 119%
[2]; 10 ppm
  hDPc proliferation (%): 145%
[2]; 20 ppm
  rate of increase in dermal papilla cell proliferation compared with the control group: ≥ 1.7 times
  hDPc proliferation (%): 172%
[3]; 1 ppm
  Average growth length (mm): 1.71 mm
[3]; 5 ppm
  Average growth length (mm): 2.05 mm
[3]; 10 ppm
  hair length growth effect compared to the control group: 1.5 times
  Average growth length (mm): 2.46 mm
